“Also recorded” adds a separate entry of the source. No end group written: not given here.
Key:
[1] = system: bovine pancreatic trypsin; assay: Trypsin inhibitory assay; format: biochemical; settings: substrate L-BAPNA, 50 mM Tris/20 mM CaCl2 pH 8.2, 10 min, room temperature; four concentrations, initial 750 µM or 1.5 mM with 10-fold dilutions; triplicate; absorbance 410 nm; positive control MCoTI-II
Method: A stock solution of bovine pancreatic trypsin at 4.5 mg/mL in 1 mM HCl was prepared and stored on ice. Firstly, the trypsin stock was diluted to 0.45 mg/mL in 50 mM Tris/20 mM CaCl2 (pH 8.2) buffer. Next, the substrate was prepared by dissolving 0.435 mg/mL L-BAPNA (Nα-benzoyl-L-arginine 4-nitroanilide hydrochloride, Sigma-Aldrich) in 1% DMSO/99% 50 mM Tris/20 mM CaCl2 buffer (pH 8.2). Four different peptide concentrations were tested starting from initial concentrations of 750 µM or 1.5 mM with 10-fold dilutions. The reaction mixture was prepared by dispensing 15 µL of 50 mM Tris/20 mM CaCl2 (pH 8.2) buffer, 5 µL of 0.45 mg/mL trypsin and followed by 5 µL of the tested peptide into each well of a 96-well plate in triplicate. A control without the tested peptide was used to measure 100% trypsin activity. Subsequently, 125 µL of 0.435 mg/mL substrate was added to the plate and incubated for 10 min at room temperature. The reaction was stopped by adding 25 µL of 30% acetic acid. Absorbance was measured at 410 nm using a Powerwave XS plate reader (Bio-Tek). Trypsin inhibition was calculated from the absorbance in the presence of the tested peptide as a percent of absorbance of the uninhibited trypsin [39]. MCoTI-II was used as the positive control.

[2] = system: Plasmodium falciparum (FCR-3 strain); assay: Antimalarial assay; format: cell-based; settings: FCR-3 strain in human RBCs (type A), 5% hematocrit, 0.3% parasitemia, GIT medium, 37°C, 72 h; various concentrations, duplicate; Giemsa smears, microscopy; positive control artemisinin
Method: Plasmodium falciparum (FCR-3 strain) was maintained in vitro at 37°C in GIT medium containing human red blood cells (RBCs, type A) at 5% hematocrit in 24-well plates which were put in a CO2 incubator (5% CO2, 5% O2 and 90% N2) at 37°C [41]. Peptides were added in duplicate in distilled water or 0.25 M phosphoric acid and prepared in various concentrations. 10 µL of this solution was added to individual cells of the plates. Erythrocytes with 0.3% parasitemia were added to the cells of the above plates containing 990 µL of culture medium. The plates were incubated at 37°C for 72 h in the CO2 incubator. To test the antimalarial activity of peptides, thin smears were prepared from each culture and stained with Giemsa. Erythrocytes were examined under microscopy. Artemisinin was used as the positive control. Drug-free control cultures were assayed simultaneously, [43].

MDA-MB-231 = assay: Cytotoxicity MTT assay, MDA-MB-231; format: cell-based; settings: MDA-MB-231 human breast cancer cells; 0.1 µM to 100 µM, duplicate, 5 h, 37°C; MTT 1 h, absorbance 600 nm; positive control Taxol
Method: (§1) The cytotoxicity of the peptides on breast cancer cells (MDA-MB-231) and non-cancerous human cells (HFF-1) was measured using a standard MTT (3-(4,5-dimethylthiazol-2-yl)-2,5-diphenyltetrazolium bromide, Sigma-Aldrich) assay. Cells were seeded in a 96-well flat-bottomed plate at a concentration of 5.0×10^4 cells/cm^2 in DMEM in 10% FBS, or DMEM in 15% FBS, and incubated at 37°C in an atmosphere of 5% CO2 in air. After 24 h, peptides were added in duplicate at the concentrations ranging from 0.1 µM to 100 µM to make up a final volume of 100 µL in each well and then incubated for 5 h. MTT solution (10 µL) in PBS (5 mg/mL) was added to each well and maintained for 1 h. Media was removed, and formazan crystals were resuspended in 100 µL of DMSO. Absorbance was then read at 600 nm. Taxol was used as the positive control.

HFF-1 = assay: Cytotoxicity MTT assay, HFF-1; format: cell-based; settings: HFF-1 non-cancerous human cells; 0.1 µM to 100 µM, duplicate, 5 h, 37°C; MTT 1 h, absorbance 600 nm; positive control Taxol
Method: as §1

Sequence: GCAGKACNLLGLTCDAGCFCRPDGVGIVAGVCV (disulfide (positions not given here)) [MCh-2, PDB 2M2R]
- trypsin inhibitory activity [1]: not active; also recorded: not trypsin inhibitors
- antimalarial activity [2]: not active
- cytotoxic activity (MDA-MB-231): not active
- cytotoxic activity (HFF-1): not active

Sequence: GCAGKSCNILGSDPCDAGCFCLPVGIVAGVCV (disulfide (positions not given here)) [MCh-1, PDB 2M2Q]
- trypsin inhibitory activity [1]: not active; also recorded: not trypsin inhibitors
- antimalarial activity [2]: not active
- cytotoxic activity (MDA-MB-231): not active
- cytotoxic activity (HFF-1): not active
